The results in this text go back to patent publication US11104670B2, “4-pyrimidin-5-ylmethyl-morpholine derivatives and the use thereof as medicament” (Boehringer Ingelheim International GmbH, priority 2018, dated 2021).

Holding throughout (format): cell-based
The target of assay [1] is NMDA NR1/NR2B receptor (Homo sapiens (Human), UniProt Q13224). The experiment in a line: NMDA NR1/NR2B FLIPR calcium assay in HEK293 cells. The note with it: glycine/glutamate-induced calcium, read-out: IC50, in vitro NR2B affinity in the FLIPR assay. As to the method: (§1) A human HEK293 cell line with tetracyclin-inducible expression of NMDA NR1/NR2B receptor was used as a test system for compound efficacy and potency. The cell line was purchased from ChanTest, Catalog #CT6121. Compound activity was determined by measuring the effect of compounds on intracellular calcium concentration induced by glycine/glutamate agonism in a FLIPRtetra system (Molecular Devices).
Chain of NMDA NR1/NR2B receptor (Homo sapiens (Human), UniProt Q13224) (Q13224 27-1484, other chains not shown): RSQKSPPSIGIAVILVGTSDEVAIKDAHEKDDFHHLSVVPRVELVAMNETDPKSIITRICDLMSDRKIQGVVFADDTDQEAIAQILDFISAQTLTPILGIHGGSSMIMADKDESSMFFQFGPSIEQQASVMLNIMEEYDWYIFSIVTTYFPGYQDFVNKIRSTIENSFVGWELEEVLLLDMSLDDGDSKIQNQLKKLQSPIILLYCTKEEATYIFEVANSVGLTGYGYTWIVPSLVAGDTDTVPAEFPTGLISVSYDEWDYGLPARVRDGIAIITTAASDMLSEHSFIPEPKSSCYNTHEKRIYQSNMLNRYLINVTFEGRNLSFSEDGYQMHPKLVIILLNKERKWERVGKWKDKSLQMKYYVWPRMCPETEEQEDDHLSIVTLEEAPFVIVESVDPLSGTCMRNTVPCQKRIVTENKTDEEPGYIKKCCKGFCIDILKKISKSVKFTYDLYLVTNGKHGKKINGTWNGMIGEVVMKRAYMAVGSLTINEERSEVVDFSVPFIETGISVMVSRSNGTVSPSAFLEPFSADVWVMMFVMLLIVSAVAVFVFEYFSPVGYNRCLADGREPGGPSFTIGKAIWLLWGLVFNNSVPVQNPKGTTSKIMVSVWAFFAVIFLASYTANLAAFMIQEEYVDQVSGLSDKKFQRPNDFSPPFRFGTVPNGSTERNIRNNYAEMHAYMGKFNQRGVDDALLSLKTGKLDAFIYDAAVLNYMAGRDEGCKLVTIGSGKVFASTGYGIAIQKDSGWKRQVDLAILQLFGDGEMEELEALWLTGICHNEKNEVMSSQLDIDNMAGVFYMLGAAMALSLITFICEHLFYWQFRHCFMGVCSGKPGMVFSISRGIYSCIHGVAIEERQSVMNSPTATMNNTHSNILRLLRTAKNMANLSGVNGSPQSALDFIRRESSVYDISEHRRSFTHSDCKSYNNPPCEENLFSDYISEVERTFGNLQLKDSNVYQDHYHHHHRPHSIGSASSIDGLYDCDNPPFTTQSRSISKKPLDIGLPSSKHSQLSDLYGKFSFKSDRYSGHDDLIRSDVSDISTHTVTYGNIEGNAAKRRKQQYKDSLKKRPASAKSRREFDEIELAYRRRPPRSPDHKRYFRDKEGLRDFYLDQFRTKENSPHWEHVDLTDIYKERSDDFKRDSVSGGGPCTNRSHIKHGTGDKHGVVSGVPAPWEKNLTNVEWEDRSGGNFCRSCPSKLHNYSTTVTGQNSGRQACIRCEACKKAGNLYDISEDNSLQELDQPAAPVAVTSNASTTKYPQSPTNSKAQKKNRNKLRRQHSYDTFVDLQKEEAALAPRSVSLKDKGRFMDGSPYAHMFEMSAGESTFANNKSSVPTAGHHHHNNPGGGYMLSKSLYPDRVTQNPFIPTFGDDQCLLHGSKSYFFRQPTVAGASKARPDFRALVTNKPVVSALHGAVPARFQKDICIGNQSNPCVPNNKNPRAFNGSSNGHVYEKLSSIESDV
(§2) The cells were obtained as frozen cells in cryo-vials and stored until use at −150° C. Cells were grown in culture medium (DMEM/F12, 10% FBS, 5 μg/mL Blasticidin, 150 μg/mL Zeozin, 500 μg/mL Geneticin). […] For sub-culturing the cells were detached from flasks by Versene. For the assay, cells were detached, washed twice with induction medium (DMEM/F12 without glutamine, 10% FBS, 2 μg/mL Tetracycline, 2 mM Ketamine) and seeded to 384 well pure coat amine plates (Becton Dickinson, 50000 cells per well in 50 μl) 48 h prior to assay in induction medium.
(§3) The test compounds were dissolved in 100% DMSO at a concentration of 10 mM and in a first step diluted in DMSO to a concentration of 5 mM, followed by serial dilution steps in 100% DMSO. Dilution factor and number of dilution steps may vary according to needs. Typically 8 different concentrations by 1:5 dilutions were prepared in duplicate, further intermediate dilutions (1:37.5) of the substances were carried out with aqueous assay buffer (137 mM NaCl, 4 mM KCl, 1.8 mM CaCl2), 10 mM HEPES, 10 mM Glucose, pH 7.4) resulting in a compound concentration 3 times above the final test concentration and DMSO at 2.7% resulting in 0.9% final DMSO concentration in the assay.
(§4) At the assay day cells were washed 3× with assay buffer (as described above), 10 μL buffer remained in the wells after washing. 10 μL Ca kit loading buffer (AAT Bioquest; prepared from the kit containing the following components: Component A: Fluo-8 NW dissolved in 200 μL DMSO and 20 μl of this solution are mixed with 10 ml buffer prepared out of component B and C, Component B: 10× Pluronic® F127 Plus diluted 1:10 in component C, Component C: HHBS (Hanks with 20 mM Hepes) was added to the cells and the plates were incubated with lid for 60 minutes at room temperature. 20 μl assay buffer containing 60 μM glycine (20 μM final) and 3 μM glutamate (1 μM final) was added to column 1-23, column 24 got assay buffer without glycine/glutamate to serve as negative unstimulated control. Fluorescence (indicating the calcium influx as a result of the NR1/NR2B ion channel activation) was read on the FLIPRtetra device for 60 seconds to monitor the glutamate induced effects. After 2 minutes 20 μL of compound dilution prepared as described above or controls (row 1-22) in assay buffer were carefully added to the wells. […] The average of 2 measurements at 5 minutes and 5 min 10 seconds after compound addition is calculated and further used for IC50 calculations. Each assay microtiter compound dilution plate contained wells (in column 23 or 24) with DMSO controls instead of compound as controls for glycine/glutamate induced fluorescence (high controls) and wells with 1 μM of a reference NR2B NAM as low controls (Compound 22; reference: Layton, Mark E et al, ACS Chemical Neuroscience 2011, 2(7), 352-362).
(§5) The output file of the reader contains the well number and measured average fluorescence units. For data evaluation and calculation, the measurement of the low control was set as 0% control and the measurement of the high control was set as 100% control. The IC50 values were calculated using the standard 4 parameter logistic regression formula. Calculation: [y=(a−d)/(1+(x/c)^b)+d], a=low value, d=high value; x=conc M; c=IC50 M; b=slope.

Another assay concerns the target Nav1.6 channel (Homo sapiens (Human), UniProt Q9UQD0). The experiment in a line: Nav1.6 inhibition, IonWorks Quattro electrophysiology. The note with it: for inhibition at 1 µM / Normalized % inhibition at 5 μM / inhibition at 5 µM: normalized to vehicle (0%) and maximal inhibition control (100%). Here is the method:
Ion Works Quattro electrophysiological platform
The compounds were prepared in DMSO at 300× the final assay concentrations of 1 and 5 μM.
The 300× DMSO stock solutions were transferred into assay plates where 2 μl per well of each 300× stock solution were placed. All assay plates were stored at −80° C. until the day of assay.
On the day of the assay, the appropriate assay plate was thawed at room temperature, centrifuged, and 198 μl of external recording solution was added and mixed thoroughly. This provided a 1:100 dilution. A further 1:3 dilution occurred upon addition to the cells in the IonWorks Quattro electrophysiological platform, giving a 1:300 dilution in total.
On each assay plate, at least 8 wells were reserved for vehicle control (0.3% DMSO) and at least 8 wells for each positive control specific to the cell line tested. The positive controls were tested at a maximal blocking and an approximate IC50 concentration. As positive control Lidocaine at concentrations of 30 and 1000 μM was used.
Amphotericin B was used to obtain electrical access to the cell interior at a final concentration of 200 μg/ml in internal recording solution.
State-dependent inhibition: Sodium channels when held at depolarized potential or long test pulse, the channels open and inactivate and then stay inactivated until the membrane potential is stepped back to hyperpolarized potentials, when the inactivated channels recover from inactivation into closed state.
Cells were held at −120 mV. In order to completely inactivate the sodium channels (pulse 1), the cells were pulsed to +0 mV for 2500 ms and stepped back to −120 mV for 10 ms (to completely recover from inactivation, however channels that had drugs bound to them will not recover from inactivation) before stepping to +0 mV for 20 ms (pulse 2).
Both the positive and vehicle control data associated with each cell line assayed are shown below as an example. The mean is shown for each positive and negative control as solid symbol with the total number of individual well replicates given next to the solid symbol. In addition, the individual data of each well are shown on the graph as open symbols so that the variation about the mean value can be readily assessed.
In FIG. 2, a Post/Pre value of 1.0 corresponds to 0% inhibition, a Post/Pre value of 0.0 corresponds to 100% inhibition.
Tables 3 and 4 show the normalized percentage inhibition of Nav1.6 channel. […] (see also the figure Assay Control Results above).
(In patch-clamp work, channel activity is measured electrically.)

For assay [2], the target named is NMDA NR1/NR2B receptor (Homo sapiens (Human), UniProt Q05586+Q13224). The experiment in a line: NMDA NR1/NR2B FLIPR calcium assay in HEK293 cells. As to conditions: glycine/glutamate-induced calcium, read-out: IC50, in vitro NR2B affinity in the FLIPR assay. Here is the method: as §1, §2, §3, §4, §5
Chain of NMDA NR1/NR2B receptor (Homo sapiens (Human), UniProt Q05586+Q13224) (Q13224 27-1484, other chains not shown): as above

Structures are written as SMILES.

Chain of Nav1.6 channel (Q9UQD0 whole entry): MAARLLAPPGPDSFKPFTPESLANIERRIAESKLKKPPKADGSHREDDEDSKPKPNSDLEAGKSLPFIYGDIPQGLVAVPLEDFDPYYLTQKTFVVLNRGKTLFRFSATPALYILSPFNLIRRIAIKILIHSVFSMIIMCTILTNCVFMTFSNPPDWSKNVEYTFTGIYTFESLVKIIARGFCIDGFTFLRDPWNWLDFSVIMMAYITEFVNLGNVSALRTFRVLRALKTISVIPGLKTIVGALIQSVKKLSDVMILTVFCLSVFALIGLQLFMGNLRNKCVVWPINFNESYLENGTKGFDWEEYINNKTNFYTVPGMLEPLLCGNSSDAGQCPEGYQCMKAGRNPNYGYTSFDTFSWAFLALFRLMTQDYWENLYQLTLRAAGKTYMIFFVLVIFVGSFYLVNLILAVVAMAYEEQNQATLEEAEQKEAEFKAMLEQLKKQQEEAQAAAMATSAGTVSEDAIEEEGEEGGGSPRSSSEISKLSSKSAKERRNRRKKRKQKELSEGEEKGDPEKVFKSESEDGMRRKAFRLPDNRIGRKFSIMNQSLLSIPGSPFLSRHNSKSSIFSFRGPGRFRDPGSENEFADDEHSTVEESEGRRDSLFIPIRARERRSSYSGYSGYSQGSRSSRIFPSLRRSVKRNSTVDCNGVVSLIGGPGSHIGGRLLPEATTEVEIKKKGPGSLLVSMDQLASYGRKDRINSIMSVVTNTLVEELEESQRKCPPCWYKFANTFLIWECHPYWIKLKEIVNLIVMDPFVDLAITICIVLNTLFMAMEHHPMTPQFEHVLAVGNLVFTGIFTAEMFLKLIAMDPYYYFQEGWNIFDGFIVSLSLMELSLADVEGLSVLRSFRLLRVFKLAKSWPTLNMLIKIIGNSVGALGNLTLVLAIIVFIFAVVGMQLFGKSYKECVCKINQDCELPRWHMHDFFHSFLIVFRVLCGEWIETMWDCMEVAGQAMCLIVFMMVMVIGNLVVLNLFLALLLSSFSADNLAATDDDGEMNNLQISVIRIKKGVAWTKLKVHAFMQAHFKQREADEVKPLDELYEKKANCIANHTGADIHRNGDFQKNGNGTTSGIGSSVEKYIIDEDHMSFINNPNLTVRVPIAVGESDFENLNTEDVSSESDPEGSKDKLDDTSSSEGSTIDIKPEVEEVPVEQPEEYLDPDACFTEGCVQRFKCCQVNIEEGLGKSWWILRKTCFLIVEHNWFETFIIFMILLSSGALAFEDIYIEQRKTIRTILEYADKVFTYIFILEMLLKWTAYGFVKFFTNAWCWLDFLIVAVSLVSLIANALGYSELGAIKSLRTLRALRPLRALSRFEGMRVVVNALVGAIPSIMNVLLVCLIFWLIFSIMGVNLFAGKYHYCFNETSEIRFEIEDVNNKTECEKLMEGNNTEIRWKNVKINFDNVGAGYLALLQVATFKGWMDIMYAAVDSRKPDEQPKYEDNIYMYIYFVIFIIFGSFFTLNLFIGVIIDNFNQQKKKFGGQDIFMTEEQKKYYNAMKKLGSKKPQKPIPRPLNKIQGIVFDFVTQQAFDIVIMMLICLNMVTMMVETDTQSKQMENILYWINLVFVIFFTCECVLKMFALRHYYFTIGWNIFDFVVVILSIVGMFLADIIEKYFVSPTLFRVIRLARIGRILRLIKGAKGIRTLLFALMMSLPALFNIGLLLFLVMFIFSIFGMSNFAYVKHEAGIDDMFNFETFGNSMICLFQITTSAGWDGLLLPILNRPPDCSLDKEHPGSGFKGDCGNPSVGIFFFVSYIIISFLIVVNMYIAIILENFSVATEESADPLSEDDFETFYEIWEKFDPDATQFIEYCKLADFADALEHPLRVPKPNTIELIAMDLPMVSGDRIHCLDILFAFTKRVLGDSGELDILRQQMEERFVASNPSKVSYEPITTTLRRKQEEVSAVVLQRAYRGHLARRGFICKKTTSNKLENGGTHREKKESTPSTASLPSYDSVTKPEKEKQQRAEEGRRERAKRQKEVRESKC

On to `CNC(=O)[C@@H]1CN(Cc2cnc(Oc3ccccc3)nc2)CCO1` [Example 33], for which the IC50 (in general, the midpoint of a concentration-inhibition curve) at NMDA NR1/NR2B receptor [1] came out at 0.509 µM.

Regarding `CNC(=O)[C@@H]1CN(Cc2cnc(Oc3c(F)cccc3F)nc2)CCO1` [Example 34], the IC50 on NMDA NR1/NR2B receptor [1] was 0.362 µM.

As to `CCCCNc1ccc(C(=O)OCCN(C)C)cc1` [Tetracaine, reference compound], the “state-dependent inhibition of Nav1.6 (in words)” value on Nav1.6 channel (depolarized vs hyperpolarized potential) is reported as “much stronger at depolarized potentials than at hyperpolarized potential”.

`CNC(=O)[C@@H]1CN(Cc2cnc(Oc3c(C)cccc3F)nc2)CCO1` [Example 35]: on NMDA NR1/NR2B receptor [1], the IC50 stood at 0.933 µM.

In the case of `O=C(C1CN(Cc2cccc(Oc3ccccc3)c2)CCO1)N1CCOCC1` (stereo not drawn) [Example 106, reference compound], at Nav1.6 channel, the inhibition (in general, the relative decrease from the control value, in per cent) at 1 µM is -0.7%; the “Normalized % inhibition at 5 μM” value worked out at 14%; the inhibition at 5 µM stood at 14%. In addition, at NMDA NR1/NR2B receptor [2], the IC50 is greater than 9.26 µM.

For the molecule `CCN(CC)CC(=O)Nc1c(C)cccc1C` [Lidocaine, reference compound], the “inhibition of evoked Nav1.6 currents (in words)” value against Nav1.6 channel (assay control, 30 and 1000 μM) was “inhibited evoked currents in a concentration and use dependent manner”. The inhibition at 1000 µM at Nav1.6 channel (read-out: maximum inhibition at P1 (not normalized)) is 46.4 to 47.2%.

As to `CCNC(=O)C1CN(Cc2cccc(Oc3ccccc3)c2)CCO1` (stereo not drawn) [Example 100, reference compound], at Nav1.6 channel, the inhibition at 1 µM is 2.2%, the “Normalized % inhibition at 5 μM” value was 37.8% and the inhibition at 5 µM was 37.8%. Besides, on NMDA NR1/NR2B receptor [2], the IC50 is greater than 8.89 µM.

Regarding `O=C(NCc1ccccn1)C1CN(Cc2cccc(Oc3ccccc3)c2)CCO1` (stereo not drawn) [Example 105, reference compound], at Nav1.6 channel, the inhibition at 1 µM is 18.2%, the “Normalized % inhibition at 5 μM” value amounted to 68% and the inhibition at 5 µM worked out at 68%. The IC50 at NMDA NR1/NR2B receptor [2] is greater than 9.26 µM.
